For one series, the system named is mouse cortical neuron. The series can be described thus: Whole-cell patch-clamp of cortical neuron, perfusion. The conditions noted are these: 1 μM via perfusion. Type of series: cell-based. An excerpt: FIGS. 13A and 13B: FIG. 13A depicts the structure of TzGly. […] The measurement results were obtained by the whole-cell patch-clamp method, as known and used in the art.
(The patch-clamp technique gives a direct electrical read-out from membranes.)

Series [1] can be described thus: Photolysis of [Ru(bpy)2(PMe3)(MTG)]+2, UV-Vis. It is filed as physicochemical. The method, then:
A total of 67 mg of [Ru(bpy)2(PMe3)Cl]PF6 were suspended in 4 ml acetone and 2 ml water, and were heated and stirred at 80° C. until dissolution. Evaporated acetone was gradually replaced with water or acetone to keep total volume constant but avoiding precipitation. All the following was performed under dim red light. 100 mg of D(+)methylthiogalactose were added and the mixture was kept at 80° C. for 5 hours: The reaction progress was followed by UV-Vis spectrophotometry until the aquo complex was no longer detectable. The solution was cooled in ice-cold water and saturated [BPh4]^− as sodium salt was added carefully. The pale yellow precipitate was washed six times in ice cold water by resuspending the precipitate and centrifugation. NMR spectra were taken in a 500 MHz Bruker Avance II spectrometer. Photolysis of the NMR sample was performed inside the unopened NMR tube, by means of a custom-built NMR photolysis device based in 10 high current (100 mA) LEDs with emission wavelength centered at 520+/−20 nm.
The complex has a molar absorptivity coefficient of ˜3100 and a maximum absorption wavelength in the visible range at 422 nm. Photolysis quantum yield is 0.3. Successive photolysis products of the same sample are shown in black (FIG. 21).

For another series, the system named is E. coli culture. Put plainly: Light-patterned uncaging of MTG in bacterial culture with X-Gal. It is filed as cell-based. The conditions noted are these: 1 mM complex, 0.02% X-Gal, 20 minutes irradiation, then 37° C. The method, then: A handheld projector 3M (110 MPro) is used to irradiate for 20 minutes an E. coli culture growing in a piece of 7 cm diameter whatman filter paper soaked in LB medium containing 1 mM [(Ru(bpy)2P(Me)3(MTG)]^+2 and 0.02% X-Gal (FIG. 24A). After image projection, the culture is left at 37° C. for until blue precipitate is noticed (˜40 minutes, FIG. 24B).

Series [2] in a line: Photorelease of TzGly from [Ru(bpy)2(TzGly)(py)]Cl2. Type of series: physicochemical. The conditions noted are these: 470 nm.
Series [3] deals with Retzius (Rz) cells in the ganglion. Put plainly: Intracellular voltage recording of leech ganglion neuron with light flash uncaging. The conditions noted are these: for neuron spiking activity on addition, before light: ˜100 μM in saline, no flash; for neuron spiking activity after light flash: pulsed Xe lamp flash. The procedure:
Hirudo medicinalis has a central nerve cord with several ganglia, each one containing about 400 neurons arranged in a known pattern. (W.-R. Schlue et al., 1980, J. Exp. Biol., 82:23-34). An entire ganglion was mounted on a dish. The transmembrane potential for a single cell (a neuron) in the ganglion was recorded by inserting inside the neuron a glass micropipet with a micrometer-sized end, filled with saturated aqueous KCl that acts as a luggin bridge for an Ag/AgCl electrode. Another Ag/AgCl electrode was used as a reference. The signal was taken with an AM-System 1600 amplifier, and the entire setup was covered with a Faraday cage. A 12 bit A/D acquisition card was used to digitize the data using an ad-hoc program written in QuickBasic.
Low Ca^2+-high Mg^2+ saline solution (NaCl, 102 mM; KCl, 4 mM; CaCl2: 1 mM; and MgCl2: 10 mM; Tris base, pH 5.4 adjusted to 7.4) was perfused through the dish. […] A pulsed Xe lamp located under the dish was used to irradiate the solution. UV light was removed using a band-pass filter at 500 nm.
After impaling the cell with an electrode, many experiments were performed on the same cell to ensure reproducibility. […] 300 seconds later, at 5500 s, a light flash was directed to the ganglion.

The nature of series [4]: Photouncaging quantum yield. It is filed as physicochemical. The procedure: The photouncaging quantum yield measurements were performed with a Nd:YAG diode pumped solid state laser doubled to 473 nm with a constant power of 6.3 mW. The light was collimated and sent through an optical path of 1 cm into a fluorescence glass cuvette, with stirring. Total irradiation energy was measured using a Coherent Fieldmaster FM light meter with a visible light photodiode model SR45.
The quantum yield of rhodamine photorelease was calculated after the analysis of fluorescence emission data during photouncaging at 473 nm. A complete spectrum was obtained once per second. Absorption of light by the complex [Ru(bpy)2(RhodB-MAPN)Cl]^+ yields the aquo complex [Ru(bpy)2(H2O)Cl]^+ and free RhodB-MAPN. In each irradiation period the amount of aquo complex and free RhodB-MAPN generated is given by the following: δn=δtIφPU(1−10^−AbsT)AbsR/AbsT where δt is the irradiation period, I the light intensity in moles of photons per second, φPU is the quantum yield of photouncaging, AbsR is the absorbance of the photoactive species [Ru(bpy)2(RhodB-MAPN)Cl]^+ at 473 nm and AbsT is the total absorbance of the irradiated solution. By means of finite element calculation of the former equation a photouncaging quantum yield of φPU=0.12 at 25° C. was calculated. This value is in good agreement with the reported quantum yields for similar complexes. […]

Series [5] can be described thus: Photorelease of 4AP from [Ru(bpy)2(4AP)2]Cl2 under visible light (UV-vis, NMR). It is filed as physicochemical. The method, then: (§1) UV-vis spectra in water were obtained with an HP 8453 diode array spectrophotometer. RMN ^1H spectra were obtained using a Bruker 500 MHz equipment. CV measurements were performed with a PAR 273A potentiostat. Irradiation was effected by means of a pulsed Xe lamp, (pulse energy ˜0.5 J), with a low-pass filter at 480 nm. Irradiation using a 473 nm DPSS laser gave similar results.
(§2) Several ruthenium polypyridyl complexes present this behavior. (D. V. Pinnick et al., 1984, Inorg. Chem., 23:1440-1445).
Although at pH 7 the spectrum of the irradiated complex is very similar to that of the original complex, a diminished shoulder at 470 nm becomes evident. To determine the nature of the photoreaction, NMR spectra were taken before and after irradiation with visible light. […] After irradiation, this signal decreased, and two new signals appeared at lower fields: one corresponding to the free ligand (m3), and the other corresponding to the aquo-4AP complex (m2), indicating photorelease of the 4AP. These two latter signals integrated for 0.30 and 0.27 of the initial signal, which corresponds to a photoreaction of 60%.
(§3) (See, e.g., E. S. Dodsworth et al., 1986, Chem. Phys. Lett., 124:152-158). The photoactivity of these compounds has been explained in terms of a reaction pathway that involves the transition between the MLCT state to a lower-energy d-d state, which promotes ligand release. There is a direct correspondence between the energy of the MLCT transition and the quantum yield of the photoreaction. For [Ru(bpy)2(4AP)CH3CN]^2+, the photoreaction yield is about φPR=0.4. Since [Ru(bpy)2(4AP)2]Cl2 presents a red-shifted band, a lower photoreaction yield is expected. An estimate based on early experiments leads to an estimate of φPR≅0.02 at 473 nm.

Series [6] in a line: Fluorescence emission quantum yield before and after irradiation. It is filed as physicochemical. From the text: All reagents were purchased from Sigma-Aldrich and used as received. Ru(bpy)2Cl2 was synthesized according to the literature using water as solvent (Viala, C.; Coudret, C. Inorg. Chim. Acta 2006, 359: 984-989). UV-vis spectra were taken with a HP8453 diode-array spectrometer. NMR spectra were obtained using a 500 MHz Bruker AM-500. Fluorescence emission measurements were made with a PTI Quantamaster spectrofluorometer, corrected for the instruments response function. Rhodamine B was used as fluorescence standard of emission quantum yield (φ=0.31 in aqueous solutions). Quantum yield of the complex was obtained directly from the ratio of the spectral areas, which present the same shape.
FIG. 20 depicts the emission spectra of the complex during irradiation. The maximum and the shape of the initial emission spectrum is the same as that of the free ligand RhodB-MAPN but the emission quantum yield is much lower, around pt=0.04. Quantum yields are easily calculated integrating the spectral areas. After irradiation with a 473 nm laser, RhodB-MAPN is released and the solution increases its fluorescence up to 6 fold, to φt=0.24.

A short description of series [7]: Dark stability and recombination followed by UV-vis spectra. It is filed as physicochemical.
Excerpt: The photoproducts after exposure to light were Ru(bpy)2(4AP)(H2O) and free 4AP.
as §2

Series [8] in a line: Cyclic voltammetry, redox potential. Type of series: physicochemical. The following applies: in water, versus Ag/AgCl. The method, then:
as §1, §3
Its aqueous solutions present a strong metal to ligand charge-transfer band (MLCT band) at 450 nm, characteristic of this family of Ru polypyridines.

Like-named read-outs stand apart in the source and are kept apart here.

As for `NC(C(=O)O)c1nnn[nH]1` (racemic) [TzGly, (RS)-(tetrazol-5-yl)glycine], in the series on mouse cortical neuron, the effect on neuron result is given as “spiking”.
`CP(C)C.CS[C@@H]1O[C@H](CO)[C@H](O)[C@H](O)[C@H]1O.[Ru+2].c1ccc(-c2ccccn2)nc1.c1ccc(-c2ccccn2)nc1` [[Ru(bpy)2(PMe3)(MTG)]^+2]: the photolysis quantum yield in series [1] was 0.3. Moreover, in the series with E. coli culture, the “time until blue precipitate is noticed” value was about 40 min.
[Ru(bpy)2(TzGly)(py)]Cl2: the photorelease on irradiation entry in series [2] is reported as “photoreleased TzGly”.
Take `[Cl][Ru][Cl].c1ccc(-c2ccccn2)nc1.c1ccc(-c2ccccn2)nc1.c1ccc(-c2ccccn2)nc1` [Ru(bpy)3Cl2, reference compound]: in series [3], the “neuron spiking activity on addition, before light” value is on record as “without significant changes in activity”. In [3] (˜100 μM), the “neuron spiking activity after light flash” value is “after a short time the activity decreased to the basal level”.
Consider `C=CCC#N.[Cl][Ru+].c1ccc(-c2ccccn2)nc1.c1ccc(-c2ccccn2)nc1` [[Ru(bpy)2(VACN)Cl]^+], for which the “photouncaging quantum yield φPU (VACN release)” value in series [4] turned out to be 0.21.
On to `CC#N.Nc1ccncc1.[Ru+2].c1ccc(-c2ccccn2)nc1.c1ccc(-c2ccccn2)nc1` [[Ru(bpy)2(4AP)CH3CN]^2+], for which the “photoreaction yield φPR” value in series [5] is recorded as about 0.4.
Take `CCN(CC)c1ccc2c(-c3ccccc3C(=O)N(C)CCC#N)c3ccc(=[N+](CC)CC)cc-3oc2c1.[Cl][Ru+].c1ccc(-c2ccccn2)nc1.c1ccc(-c2ccccn2)nc1` [[Ru(bpy)2(RhodB-MAPN)Cl]^+]: in series [6] (after blue light (473 nm) irradiation), the increase of fluorescence result was “up to 6 fold”. Besides, the emission quantum yield in series [6] (after irradiation with a 473 nm laser) is given as 0.24; in series [6] (aqueous, before irradiation), about 0.04. Also, the “photouncaging quantum yield φPU” value in series [4] (473 nm, 25° C.) amounted to 0.12.
Regarding `Nc1ccncc1.Nc1ccncc1.[Cl-].[Cl-].[Ru+2].c1ccc(-c2ccccn2)nc1.c1ccc(-c2ccccn2)nc1` [[Ru(bpy)2(4AP)2]Cl2], the “extent of photoreaction (NMR signal integration)” value in [5] (after irradiation with visible light) was 60%. For the same compound, the “photoreaction yield φPR” value in series [5] (at 473 nm, estimate based on early experiments) was about 0.02. In series [7] (in the dark), the “time without dark decomposition” value is “more than 20 hours”. Also, the 4AP recombination result in [7] (irradiated solution, after 7 hours in the dark) is reported as “less than 4%”. Besides, in [7] (water), the “stability in the dark” value is on record as “stable in the dark”. Also, in [8], the “redox potential of the couple R^III/R^II” value came to 0.76 V. Besides, in series [3] (during the experiments), the “toxicity on the neuron” value is given as “Neither toxicity nor a deleterious effect was observed”. Further, in [3], the “neuron spiking activity on addition, before light” value is “the activity remained unchanged”. The “neuron spiking activity after light flash” value in series [3] (˜100 μM) was “sudden activity was recorded and it remained high after 300 s”. For the same compound, the “neuron spiking activity after second light pulse” value in series [3] (˜100 μM, second light pulse at 6750 s) is reported as “even higher activity”.

These data come from patent US9744236B2, “Photolabile compounds” (The Trustees of Columbia University in the City of New York, priority 2009, dated 2017).
